Measured values as given in article doi:10.1101/2023.03.24.534094v2 (biorxiv, 2023).
Like-named read-outs stand apart in the source and are kept apart here. Values belong to the compound of their own block, whether it stands above or below them.

What was measured:
Assay in all cases: biochemical
Wnk1 = Wnk1 (Homo sapiens, UniProt Q9H4A3)
MST1 = target: T1, MST1 (Homo sapiens, UniProt Q13043)
T1 sequence (Q13043 1-487): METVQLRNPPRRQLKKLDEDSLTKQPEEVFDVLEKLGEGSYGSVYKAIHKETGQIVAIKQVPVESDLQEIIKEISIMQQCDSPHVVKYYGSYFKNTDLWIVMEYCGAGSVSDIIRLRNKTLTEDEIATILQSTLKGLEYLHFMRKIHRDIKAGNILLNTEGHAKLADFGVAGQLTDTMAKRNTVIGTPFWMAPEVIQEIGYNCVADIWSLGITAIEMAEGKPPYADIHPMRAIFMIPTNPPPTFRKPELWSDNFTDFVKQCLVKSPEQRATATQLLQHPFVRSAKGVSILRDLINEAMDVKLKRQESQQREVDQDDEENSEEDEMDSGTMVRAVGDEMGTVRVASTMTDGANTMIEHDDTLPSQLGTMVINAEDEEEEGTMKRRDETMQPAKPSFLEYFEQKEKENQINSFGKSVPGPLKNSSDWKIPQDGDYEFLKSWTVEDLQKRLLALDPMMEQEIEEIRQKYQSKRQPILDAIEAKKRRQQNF

MST3 [1] = target: T2, MST3 (Homo sapiens, UniProt Q9Y6E0)
T2 sequence (Q9Y6E0 whole entry): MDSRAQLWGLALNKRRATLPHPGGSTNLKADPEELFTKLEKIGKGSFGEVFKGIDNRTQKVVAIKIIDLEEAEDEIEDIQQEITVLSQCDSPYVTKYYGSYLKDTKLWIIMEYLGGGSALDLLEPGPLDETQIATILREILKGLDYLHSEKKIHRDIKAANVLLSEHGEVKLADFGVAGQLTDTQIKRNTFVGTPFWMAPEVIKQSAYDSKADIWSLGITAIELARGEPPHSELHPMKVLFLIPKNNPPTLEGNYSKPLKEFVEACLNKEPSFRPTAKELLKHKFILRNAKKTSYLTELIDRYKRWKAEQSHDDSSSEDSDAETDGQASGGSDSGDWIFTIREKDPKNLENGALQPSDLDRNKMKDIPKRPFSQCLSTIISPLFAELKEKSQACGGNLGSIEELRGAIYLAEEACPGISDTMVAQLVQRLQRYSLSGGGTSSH

STLK3 = STLK3 (Homo sapiens, UniProt Q9UEW8)
AurA = target: T3, AurA (Homo sapiens, UniProt O14965)
T3 sequence (O14965 1-403): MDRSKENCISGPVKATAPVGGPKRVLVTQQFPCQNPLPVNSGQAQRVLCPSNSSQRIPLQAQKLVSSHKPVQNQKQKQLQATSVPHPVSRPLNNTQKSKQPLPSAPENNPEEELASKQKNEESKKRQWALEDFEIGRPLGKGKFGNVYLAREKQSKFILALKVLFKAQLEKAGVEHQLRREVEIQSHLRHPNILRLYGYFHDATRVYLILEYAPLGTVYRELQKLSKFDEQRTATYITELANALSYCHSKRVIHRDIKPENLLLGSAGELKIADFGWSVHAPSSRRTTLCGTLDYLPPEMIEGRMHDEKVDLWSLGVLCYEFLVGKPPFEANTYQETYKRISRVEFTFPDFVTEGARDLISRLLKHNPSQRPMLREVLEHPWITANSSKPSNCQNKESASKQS

FGFR1 = FGFR1 (Homo sapiens, UniProt P11362)
Sequence of FGFR1 (P11362 whole entry): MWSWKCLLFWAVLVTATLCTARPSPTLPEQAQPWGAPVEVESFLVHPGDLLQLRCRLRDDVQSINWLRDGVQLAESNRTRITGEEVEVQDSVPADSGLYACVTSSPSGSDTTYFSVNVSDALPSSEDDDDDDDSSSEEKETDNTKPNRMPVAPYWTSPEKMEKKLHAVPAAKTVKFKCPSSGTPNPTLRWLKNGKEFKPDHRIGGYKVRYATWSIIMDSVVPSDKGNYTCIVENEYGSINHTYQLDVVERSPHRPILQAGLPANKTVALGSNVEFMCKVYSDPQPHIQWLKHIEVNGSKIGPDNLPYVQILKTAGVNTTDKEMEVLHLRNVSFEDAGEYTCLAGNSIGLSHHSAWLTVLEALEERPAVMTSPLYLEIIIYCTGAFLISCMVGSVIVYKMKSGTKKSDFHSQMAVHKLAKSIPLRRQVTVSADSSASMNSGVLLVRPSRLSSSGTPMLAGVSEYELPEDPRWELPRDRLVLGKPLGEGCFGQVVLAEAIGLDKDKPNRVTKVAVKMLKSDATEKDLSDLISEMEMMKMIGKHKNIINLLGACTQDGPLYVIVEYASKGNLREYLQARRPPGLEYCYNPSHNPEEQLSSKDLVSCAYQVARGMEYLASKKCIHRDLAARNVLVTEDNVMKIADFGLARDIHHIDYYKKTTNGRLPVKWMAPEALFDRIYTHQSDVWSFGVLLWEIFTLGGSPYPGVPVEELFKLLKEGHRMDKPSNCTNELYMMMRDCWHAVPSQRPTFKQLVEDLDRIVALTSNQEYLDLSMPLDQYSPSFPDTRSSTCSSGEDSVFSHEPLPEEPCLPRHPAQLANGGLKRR

EphA7 = EphA7 (Homo sapiens, UniProt Q15375)
Sequence of EphA7 (Q15375 whole entry): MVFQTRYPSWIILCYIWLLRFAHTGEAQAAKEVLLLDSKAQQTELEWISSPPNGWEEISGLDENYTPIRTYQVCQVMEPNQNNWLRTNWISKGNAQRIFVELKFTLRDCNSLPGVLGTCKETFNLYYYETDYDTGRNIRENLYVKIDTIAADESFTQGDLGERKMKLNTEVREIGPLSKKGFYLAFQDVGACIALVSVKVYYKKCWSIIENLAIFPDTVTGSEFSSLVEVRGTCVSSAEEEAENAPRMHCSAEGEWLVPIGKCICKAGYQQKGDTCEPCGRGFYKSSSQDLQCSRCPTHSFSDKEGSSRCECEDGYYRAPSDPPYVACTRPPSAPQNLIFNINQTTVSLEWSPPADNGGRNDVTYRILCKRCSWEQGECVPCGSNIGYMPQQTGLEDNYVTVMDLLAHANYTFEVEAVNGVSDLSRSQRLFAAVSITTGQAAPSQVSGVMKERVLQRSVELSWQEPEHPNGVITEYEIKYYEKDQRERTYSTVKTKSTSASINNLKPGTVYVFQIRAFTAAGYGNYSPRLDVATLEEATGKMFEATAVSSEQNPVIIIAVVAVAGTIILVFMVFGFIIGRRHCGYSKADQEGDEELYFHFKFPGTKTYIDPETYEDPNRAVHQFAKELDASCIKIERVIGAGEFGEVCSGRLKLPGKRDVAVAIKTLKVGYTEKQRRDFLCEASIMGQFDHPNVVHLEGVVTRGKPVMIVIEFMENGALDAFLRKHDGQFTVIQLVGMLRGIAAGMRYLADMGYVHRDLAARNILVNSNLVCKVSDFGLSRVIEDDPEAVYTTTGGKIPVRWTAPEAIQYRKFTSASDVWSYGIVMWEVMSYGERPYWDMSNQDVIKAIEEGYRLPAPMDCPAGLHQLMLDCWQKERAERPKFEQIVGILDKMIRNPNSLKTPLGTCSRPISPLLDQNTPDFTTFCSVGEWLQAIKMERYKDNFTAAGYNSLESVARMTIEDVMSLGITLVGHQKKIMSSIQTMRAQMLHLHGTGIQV

MAP2K4 = target: T4, MAP2K4 (Homo sapiens, UniProt P45985)
T4 sequence (P45985 1-399): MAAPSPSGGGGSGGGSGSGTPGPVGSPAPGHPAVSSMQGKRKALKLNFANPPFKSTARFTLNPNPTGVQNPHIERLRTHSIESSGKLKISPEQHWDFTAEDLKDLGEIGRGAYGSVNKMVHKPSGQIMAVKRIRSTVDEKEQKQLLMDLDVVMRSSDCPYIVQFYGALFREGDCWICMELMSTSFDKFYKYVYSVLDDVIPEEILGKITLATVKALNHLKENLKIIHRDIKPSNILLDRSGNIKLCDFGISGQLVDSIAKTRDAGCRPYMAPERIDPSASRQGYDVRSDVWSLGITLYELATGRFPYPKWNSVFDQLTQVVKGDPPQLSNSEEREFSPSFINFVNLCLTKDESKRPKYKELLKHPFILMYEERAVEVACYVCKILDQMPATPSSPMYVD

PAK1 [2] = target: T5, PAK1 (Homo sapiens, UniProt Q13153)
MST3 [3] = target: T2, MST3; remark: listed apart in the source
PAK1 [4] = target: T5, PAK1; remark: listed apart in the source

Sequence of Wnk1 (Q9H4A3 whole entry): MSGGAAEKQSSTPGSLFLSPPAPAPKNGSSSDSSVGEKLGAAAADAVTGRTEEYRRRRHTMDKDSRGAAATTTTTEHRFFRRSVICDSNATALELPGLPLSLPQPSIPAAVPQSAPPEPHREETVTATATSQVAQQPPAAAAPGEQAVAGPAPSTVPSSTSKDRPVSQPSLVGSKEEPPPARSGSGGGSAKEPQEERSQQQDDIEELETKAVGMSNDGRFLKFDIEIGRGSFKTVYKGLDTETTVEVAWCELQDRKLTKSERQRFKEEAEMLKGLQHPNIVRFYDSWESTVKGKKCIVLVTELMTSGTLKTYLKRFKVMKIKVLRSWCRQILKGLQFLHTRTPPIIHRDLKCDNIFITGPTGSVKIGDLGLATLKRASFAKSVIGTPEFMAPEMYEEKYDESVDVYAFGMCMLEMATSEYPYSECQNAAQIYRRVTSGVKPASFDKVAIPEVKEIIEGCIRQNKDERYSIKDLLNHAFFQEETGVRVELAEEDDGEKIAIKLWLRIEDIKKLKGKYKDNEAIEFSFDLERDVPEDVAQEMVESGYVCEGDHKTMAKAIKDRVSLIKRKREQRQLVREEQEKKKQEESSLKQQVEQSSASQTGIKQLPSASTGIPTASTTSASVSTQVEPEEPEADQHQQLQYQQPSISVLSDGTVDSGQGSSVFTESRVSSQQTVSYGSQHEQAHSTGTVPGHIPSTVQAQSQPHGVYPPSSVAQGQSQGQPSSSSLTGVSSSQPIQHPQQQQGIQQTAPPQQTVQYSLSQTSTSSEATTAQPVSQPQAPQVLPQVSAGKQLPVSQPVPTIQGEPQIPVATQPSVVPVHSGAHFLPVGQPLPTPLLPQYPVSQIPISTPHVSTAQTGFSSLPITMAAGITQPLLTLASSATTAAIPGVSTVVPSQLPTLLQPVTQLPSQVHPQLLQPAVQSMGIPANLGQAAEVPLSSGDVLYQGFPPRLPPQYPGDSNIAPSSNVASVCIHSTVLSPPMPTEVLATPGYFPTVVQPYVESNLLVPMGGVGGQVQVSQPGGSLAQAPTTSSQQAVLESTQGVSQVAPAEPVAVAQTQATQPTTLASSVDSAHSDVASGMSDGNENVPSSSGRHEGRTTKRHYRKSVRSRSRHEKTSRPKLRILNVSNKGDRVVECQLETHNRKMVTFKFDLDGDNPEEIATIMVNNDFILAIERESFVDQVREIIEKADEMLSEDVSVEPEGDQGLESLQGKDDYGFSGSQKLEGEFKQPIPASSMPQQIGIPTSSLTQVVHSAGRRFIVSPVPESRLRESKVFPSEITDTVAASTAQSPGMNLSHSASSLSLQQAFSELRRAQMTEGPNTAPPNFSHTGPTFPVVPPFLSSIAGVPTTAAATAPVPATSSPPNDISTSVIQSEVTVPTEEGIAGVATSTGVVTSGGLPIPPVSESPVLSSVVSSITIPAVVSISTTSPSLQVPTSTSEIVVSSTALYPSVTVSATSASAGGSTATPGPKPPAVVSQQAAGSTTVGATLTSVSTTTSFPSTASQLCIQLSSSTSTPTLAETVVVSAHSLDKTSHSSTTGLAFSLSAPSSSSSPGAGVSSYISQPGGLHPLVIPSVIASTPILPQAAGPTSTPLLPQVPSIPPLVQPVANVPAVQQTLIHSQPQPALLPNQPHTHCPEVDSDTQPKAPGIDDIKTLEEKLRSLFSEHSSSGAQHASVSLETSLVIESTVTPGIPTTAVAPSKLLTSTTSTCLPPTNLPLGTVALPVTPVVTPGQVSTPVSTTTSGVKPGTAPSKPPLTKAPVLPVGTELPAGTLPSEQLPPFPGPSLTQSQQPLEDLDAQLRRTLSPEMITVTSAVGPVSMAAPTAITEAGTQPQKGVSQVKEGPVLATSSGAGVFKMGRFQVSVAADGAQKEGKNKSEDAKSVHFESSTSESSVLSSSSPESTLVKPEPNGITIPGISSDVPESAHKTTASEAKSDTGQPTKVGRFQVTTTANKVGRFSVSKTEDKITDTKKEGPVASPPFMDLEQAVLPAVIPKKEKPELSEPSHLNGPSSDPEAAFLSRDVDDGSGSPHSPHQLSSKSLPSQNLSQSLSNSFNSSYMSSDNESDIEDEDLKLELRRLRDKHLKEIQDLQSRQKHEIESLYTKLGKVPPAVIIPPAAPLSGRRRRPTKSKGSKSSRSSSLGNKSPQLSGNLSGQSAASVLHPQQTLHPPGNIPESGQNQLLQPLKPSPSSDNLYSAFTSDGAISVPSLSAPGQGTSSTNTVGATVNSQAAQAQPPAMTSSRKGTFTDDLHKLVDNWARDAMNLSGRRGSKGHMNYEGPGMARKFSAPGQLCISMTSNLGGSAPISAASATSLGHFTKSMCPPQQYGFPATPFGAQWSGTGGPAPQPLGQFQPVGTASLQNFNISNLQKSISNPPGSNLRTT

- ΔTm at 10 µM (Wnk1; read-out: ∆Tm MR22 (5)): -0.1 °C
- ΔTm at 10 µM (MST1; read-out: ∆Tm MR22 (5)): -0.3 °C
- ΔTm at 10 µM (MST3 [1]; read-out: ∆Tm MR22 (5)): 1.6 °C
- ΔTm at 10 µM (STLK3; read-out: dTm MR22 (5)): 2.1 °C
- ΔTm at 10 µM (AurA; read-out: dTm MR22 (5)): -3 °C
- ΔTm at 10 µM (FGFR1; read-out: dTm MR22 (5)): 3.4 °C
- ΔTm at 10 µM (EphA7; read-out: dTm MR22 (5)): -1.6 °C
- ΔTm at 10 µM (MAP2K4; read-out: dTm MR22 (5)): 1.5 °C
SMILES: CNc1ncc2cc(-c3cc(F)ccc3F)c(=O)n(CCCCN)c2n1 [compound 5, 8-(4-Aminobutyl)-6-(2,5-difluorophenyl)-2-(methylamino)pyrido[2,3-d]pyrimidin-7(8H)-one]

- ΔTm at 10 µM (PAK1 [2]; read-out: ∆Tm 11): 0.7 °C
- ΔTm at 10 µM (MST3 [3]; read-out: ∆Tm 11): 1.9 °C
SMILES: CNc1ncc2cc(-c3cc(Br)ccc3Br)c(=O)n(CCCCN)c2n1 [compound 11, 8-(4-Aminobutyl)-6-(2,5-dibromophenyl)-2-(methylamino)pyrido[2,3-d]pyrimidin-7(8H)-one]

- ΔTm at 10 µM (PAK1 [2]; read-out: ∆Tm 8): 0.7 °C
- ΔTm at 10 µM (MST3 [3]; read-out: ∆Tm 8): 1.9 °C
SMILES: CNc1ncc2cc(-c3cc(Cl)ccc3Cl)c(=O)n(CCCCN)c2n1 [compound 8, 8-(4-Aminobutyl)-6-(2,5-dichlorophenyl)-2-(methylamino)pyrido[2,3-d]pyrimidin-7(8H)-one]

- ΔTm at 10 µM (Wnk1; read-out: ∆Tm MR21 (4)): -0.4 °C
- ΔTm at 10 µM (PAK1 [4]; read-out: ∆Tm MR21 (4)): 1.6 °C
- ΔTm at 10 µM (MST1; read-out: ∆Tm MR21 (4)): 1.5 °C
- ΔTm at 10 µM (MST3 [1]; read-out: ∆Tm MR21 (4)): 4.1 °C
- ΔTm at 10 µM (STLK3; read-out: dTm MR21 (4)): -1.1 °C
- ΔTm at 10 µM (FGFR1; read-out: dTm MR21 (4)): 3.3 °C
- ΔTm at 10 µM (EphA7; read-out: dTm MR21 (4)): 1.8 °C
- ΔTm at 10 µM (MAP2K4; read-out: dTm MR21 (4)): 3.3 °C
SMILES: CNc1ncc2cc(-c3ccccc3Cl)c(=O)n(CCCCN)c2n1 [compound 4, 8-(4-Aminobutyl)-6-(2-chlorophenyl)-2-(methylamino)pyrido[2,3-d]pyrimidin-7(8H)-one]

- ΔTm at 10 µM (Wnk1; read-out: ∆Tm 7): 1.1 °C
- ΔTm at 10 µM (PAK1 [4]; read-out: ∆Tm 7): 0.6 °C
- ΔTm at 10 µM (MST3 [1]; read-out: ∆Tm 7): 0.8 °C
- ΔTm at 10 µM (STLK3; read-out: dTm 7): 0 °C
- ΔTm at 10 µM (AurA; read-out: dTm 7): 1.4 °C
- ΔTm at 10 µM (FGFR1; read-out: dTm 7): 2.9 °C
- ΔTm at 10 µM (EphA7; read-out: dTm 7): -0.5 °C
- ΔTm at 10 µM (MAP2K4; read-out: dTm 7): 2.1 °C
SMILES: CNc1ncc2cc(-c3cc(Br)ccc3Cl)c(=O)n(C[C@H]3OC[C@H](N)CO3)c2n1 [compound 7, 8-(((2r,5r)-5-Amino-1,3-dioxan-2-yl)methyl)-6-(5-bromo-2-chlorophenyl)-2-(methylamino)pyrido[2,3-d]pyrimidin-7(8H)-one]

- ΔTm at 10 µM (PAK1 [2]; read-out: ∆Tm 10): 0.6 °C
- ΔTm at 10 µM (MST3 [3]; read-out: ∆Tm 10): 2 °C
SMILES: CNc1ncc2cc(-c3cc(Cl)ccc3Br)c(=O)n(CCCCN)c2n1 [compound 10, 8-(4-Aminobutyl)-6-(2-bromo-5-chlorophenyl)-2-(methylamino)pyrido[2,3-d]pyrimidin-7(8H)-one]

- ΔTm at 10 µM (Wnk1; read-out: ∆Tm 6): 0 °C
- ΔTm at 10 µM (MST3 [1]; read-out: ∆Tm 6): 2.7 °C
- ΔTm at 10 µM (STLK3; read-out: dTm 6): 0.2 °C
- ΔTm at 10 µM (AurA; read-out: dTm 6): 1.9 °C
- ΔTm at 10 µM (FGFR1; read-out: dTm 6): 3 °C
- ΔTm at 10 µM (EphA7; read-out: dTm 6): 2.7 °C
- ΔTm at 10 µM (MAP2K4; read-out: dTm 6): 2.5 °C
SMILES: CNc1ncc2cc(-c3cc(Br)ccc3Cl)c(=O)n(CCCCN)c2n1 [compound 6, 8-(4-Aminobutyl)-6-(5-bromo-2-chlorophenyl)-2-(methylamino)pyrido[2,3-d]pyrimidin-7(8H)-one]

- ∆Tm G-5555 (2) (Wnk1; 10 µM, binder): 2.4 degC
- ∆Tm G-5555 (2) (PAK1 [4]; 10 µM, binder): 6.4 degC
- ∆Tm G-5555 (2) (MST1; 10 µM, binder): 4.5 degC
- ∆Tm G-5555 (2) (MST3 [1]; 10 µM, binder): 7.5 degC
- dTm G-5555 (2) (STLK3; 10 µM, binder): 0.6 °C
- dTm G-5555 (2) (AurA; 10 µM, binder): 8.5 °C
- dTm G-5555 (2) (FGFR1; 10 µM, binder): -0.1 °C
- dTm G-5555 (2) (EphA7; 10 µM, binder): 4.1 °C
- dTm G-5555 (2) (MAP2K4; 10 µM, binder): 6.4 °C
SMILES: CNc1ncc2cc(-c3ccc(-c4cccc(C)n4)cc3Cl)c(=O)n(CC3OCC(N)CO3)c2n1 (stereo not shown) [compound 2, G-5555]
